{"source": "ChEMBL document CHEMBL1201862", "about": "“PubChem BioAssay data set” (2004)", "key": {"[1]": {"assay": "Trypanosoma cruzi growth suppression in host cells – NIH3T3 host cells, beta-gal luminescence, confirmation (AID 2044);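 also: intracellular parasites grown in NIH/3T3 mouse fibroblasts as host cells; luminescent beta-galactosidase reporter signal from transgenic T. cruzi replicating inside host cells; inhibitors lower the luminescence signal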", "assay_type": "functional, cell-based"}, "[2]": {"assay": "NIH3T3 cell viability loss – ATP luminescence, mouse fibroblasts, counter-screen, dose response (AID 2010);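 also: cells exposed to compound for about 90 hours before reading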", "assay_type": "functional, cell-based"}, "Nonstructural protein 1": {"target": "Nonstructural protein 1 (Influenza A virus, UniProt Q194T2)", "sequence (Q194T2 whole entry)": "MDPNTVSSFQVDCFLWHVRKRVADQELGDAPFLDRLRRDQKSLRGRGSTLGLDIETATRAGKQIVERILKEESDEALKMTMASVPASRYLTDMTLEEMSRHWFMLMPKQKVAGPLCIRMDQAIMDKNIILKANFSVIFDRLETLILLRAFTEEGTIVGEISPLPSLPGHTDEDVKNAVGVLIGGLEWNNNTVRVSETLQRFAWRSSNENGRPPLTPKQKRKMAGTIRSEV", "assay_type": "functional, Influenza A virus (A/California/07/2009(H1N1))"}, "HEK293": {"test_system": "HEK293", "assay": "EBV LMP1 TES2 canonical NF-kB signalling blockers – cell-based, HEK293, luciferase, cherry-pick, dose response (AID 588343)", "assay_type": "functional", "settings": "Homo sapiens"}, "INS1": {"test_system": "INS1", "assay": "INS-1E survival protection against cytokine death – cell-based, luminescence, retest, dose response (AID 449756);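 also: cell death triggered by IL-1 beta plus TNF-alpha plus IFN-gamma mixture; protective hits raise ATP signal compared with cytokine alone wells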", "assay_type": "functional", "settings": "Rattus norvegicus"}, "[3]": {"target": "Photoreceptor-specific nuclear receptor (Homo sapiens, UniProt Q9Y5X4)", "sequence (Q9Y5X4 whole entry)": "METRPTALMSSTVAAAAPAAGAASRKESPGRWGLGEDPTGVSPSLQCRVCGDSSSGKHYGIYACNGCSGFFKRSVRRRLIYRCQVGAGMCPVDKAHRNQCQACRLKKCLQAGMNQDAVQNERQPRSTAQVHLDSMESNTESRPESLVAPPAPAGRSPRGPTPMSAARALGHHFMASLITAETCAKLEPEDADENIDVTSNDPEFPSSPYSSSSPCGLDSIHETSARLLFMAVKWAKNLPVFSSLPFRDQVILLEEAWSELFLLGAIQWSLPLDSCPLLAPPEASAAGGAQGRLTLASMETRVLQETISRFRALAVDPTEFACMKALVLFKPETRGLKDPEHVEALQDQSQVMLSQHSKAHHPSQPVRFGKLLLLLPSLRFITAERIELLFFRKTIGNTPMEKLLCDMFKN", "assay_type": "functional, cell-based"}, "[4]": {"assay": "bead-based luminescence quenchers, dual-tagged ARNT – biochemical, AlphaScreen, cherry-pick, artefact control for ARNT-TACC3 interaction inhibitor project, dose response (AID 651705);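 also: AlphaScreen bead proximity signal that flags compounds interfering with the detection technology; potency reflects signal decrease which marks the compound as an assay artifact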", "assay_type": "functional"}, "Mu-type opioid receptor": {"target": "Mu-type opioid receptor (Homo sapiens, UniProt P35372)", "sequence (P35372 whole entry)": "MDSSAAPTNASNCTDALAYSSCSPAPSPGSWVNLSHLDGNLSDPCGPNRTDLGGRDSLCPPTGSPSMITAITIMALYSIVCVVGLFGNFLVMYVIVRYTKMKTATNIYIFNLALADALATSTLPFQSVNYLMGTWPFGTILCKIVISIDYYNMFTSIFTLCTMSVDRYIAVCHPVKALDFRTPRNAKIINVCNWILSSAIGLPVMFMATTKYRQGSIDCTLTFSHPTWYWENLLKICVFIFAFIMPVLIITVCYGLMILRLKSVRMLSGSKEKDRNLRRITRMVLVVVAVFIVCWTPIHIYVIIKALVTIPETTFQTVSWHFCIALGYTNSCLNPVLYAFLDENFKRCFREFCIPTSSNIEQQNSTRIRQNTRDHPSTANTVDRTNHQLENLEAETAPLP", "assay_type": "functional, cell-based"}, "[5]": {"target": "5-hydroxytryptamine receptor 2A (Mus musculus, UniProt P35363)", "sequence (P35363 whole entry)": "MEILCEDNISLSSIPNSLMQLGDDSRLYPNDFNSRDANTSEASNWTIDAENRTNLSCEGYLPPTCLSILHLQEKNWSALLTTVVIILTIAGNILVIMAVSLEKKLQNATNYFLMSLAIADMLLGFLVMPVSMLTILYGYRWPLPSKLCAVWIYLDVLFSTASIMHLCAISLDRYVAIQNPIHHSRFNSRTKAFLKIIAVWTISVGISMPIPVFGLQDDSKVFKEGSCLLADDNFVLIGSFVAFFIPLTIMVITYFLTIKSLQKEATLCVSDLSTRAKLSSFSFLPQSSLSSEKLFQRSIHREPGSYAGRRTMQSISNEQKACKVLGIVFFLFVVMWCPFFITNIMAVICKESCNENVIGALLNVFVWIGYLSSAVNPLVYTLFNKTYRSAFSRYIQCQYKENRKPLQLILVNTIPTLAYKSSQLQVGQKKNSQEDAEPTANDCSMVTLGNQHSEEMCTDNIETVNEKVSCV", "assay_type": "functional, cell-based"}, "[6]": {"target": "Tyrosyl-DNA phosphodiesterase 2 (Homo sapiens, UniProt O95551)", "sequence (O95551 whole entry)": "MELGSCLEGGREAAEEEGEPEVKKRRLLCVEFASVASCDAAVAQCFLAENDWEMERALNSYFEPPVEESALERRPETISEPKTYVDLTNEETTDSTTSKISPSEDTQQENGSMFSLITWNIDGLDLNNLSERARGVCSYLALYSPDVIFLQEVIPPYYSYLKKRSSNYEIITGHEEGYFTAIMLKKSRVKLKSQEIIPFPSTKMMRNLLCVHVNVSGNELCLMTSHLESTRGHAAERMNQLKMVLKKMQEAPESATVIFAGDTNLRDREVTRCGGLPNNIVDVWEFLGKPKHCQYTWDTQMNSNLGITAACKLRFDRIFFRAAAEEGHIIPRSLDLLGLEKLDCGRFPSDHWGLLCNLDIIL", "assay": "potency against TDP2 phosphodiesterase activity – biochemical, epi absorbance, IC50, dose response (AID 743297)"}, "cells [7]": {"assay": "cells", "assay_type": "functional, cell-based"}, "[8]": {"target": "T1, Trace amine-associated receptor 1 (Homo sapiens, UniProt Q96RJ0)", "T1 sequence (Q96RJ0 whole entry)": "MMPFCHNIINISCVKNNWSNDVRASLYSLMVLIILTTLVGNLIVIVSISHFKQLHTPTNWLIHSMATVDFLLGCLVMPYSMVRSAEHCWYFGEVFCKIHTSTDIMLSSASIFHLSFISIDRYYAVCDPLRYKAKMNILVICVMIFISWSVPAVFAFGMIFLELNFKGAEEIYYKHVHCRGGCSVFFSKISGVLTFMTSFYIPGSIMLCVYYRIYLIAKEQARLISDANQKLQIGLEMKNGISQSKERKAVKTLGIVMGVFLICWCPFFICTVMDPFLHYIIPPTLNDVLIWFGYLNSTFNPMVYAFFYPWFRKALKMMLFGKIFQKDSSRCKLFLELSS", "assay": "Fluorescence-based cell-based high throughput dose response assay to identify agonists of the human trace amine associated receptor 1 (TAAR1).", "assay_type": "functional"}, "[9]": {"target": "T1, Trace amine-associated receptor 1", "assay": "Counterscreen for agonists of the human trace amine associated receptor 1 (hTAAR1): Fluorescence-based cell-based high throughput dose response assay to identify hTAAR1 agonist that also desensitize TAAR1 receptor response.", "assay_type": "functional"}, "cells [10]": {"assay": "cells", "assay_type": "functional, cell-based", "remark": "listed apart in the source"}, "Hexokinase": {"target": "T2, Hexokinase (Trypanosoma brucei, UniProt Q38C41)", "T2 sequence (Q38C41 whole entry)": "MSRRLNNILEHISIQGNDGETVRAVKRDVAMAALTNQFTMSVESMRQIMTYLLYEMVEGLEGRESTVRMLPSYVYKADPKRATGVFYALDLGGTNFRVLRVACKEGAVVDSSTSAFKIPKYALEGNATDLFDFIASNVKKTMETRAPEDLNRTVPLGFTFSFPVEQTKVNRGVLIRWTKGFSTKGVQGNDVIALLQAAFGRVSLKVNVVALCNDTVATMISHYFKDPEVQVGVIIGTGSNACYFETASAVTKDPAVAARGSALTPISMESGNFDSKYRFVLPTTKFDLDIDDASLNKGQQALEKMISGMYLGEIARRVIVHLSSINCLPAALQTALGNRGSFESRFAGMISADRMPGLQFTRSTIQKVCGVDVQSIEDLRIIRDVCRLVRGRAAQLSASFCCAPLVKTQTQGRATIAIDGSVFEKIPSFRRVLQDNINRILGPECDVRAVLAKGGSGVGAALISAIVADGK", "assay": "Confirmation assay for inhibitors of Trypanosoma brucei hexokinase 1-Analogue-first series. [Related pubchem assays (depositor defined):AID1430, AID1632, AID2516, AID2560, AID2579, AID2600, AID449725, AID492951]", "assay_type": "functional"}, "[11]": {"target": "Glucose-6-phosphate 1-dehydrogenase (Homo sapiens, UniProt P11413)", "sequence (P11413 whole entry)": "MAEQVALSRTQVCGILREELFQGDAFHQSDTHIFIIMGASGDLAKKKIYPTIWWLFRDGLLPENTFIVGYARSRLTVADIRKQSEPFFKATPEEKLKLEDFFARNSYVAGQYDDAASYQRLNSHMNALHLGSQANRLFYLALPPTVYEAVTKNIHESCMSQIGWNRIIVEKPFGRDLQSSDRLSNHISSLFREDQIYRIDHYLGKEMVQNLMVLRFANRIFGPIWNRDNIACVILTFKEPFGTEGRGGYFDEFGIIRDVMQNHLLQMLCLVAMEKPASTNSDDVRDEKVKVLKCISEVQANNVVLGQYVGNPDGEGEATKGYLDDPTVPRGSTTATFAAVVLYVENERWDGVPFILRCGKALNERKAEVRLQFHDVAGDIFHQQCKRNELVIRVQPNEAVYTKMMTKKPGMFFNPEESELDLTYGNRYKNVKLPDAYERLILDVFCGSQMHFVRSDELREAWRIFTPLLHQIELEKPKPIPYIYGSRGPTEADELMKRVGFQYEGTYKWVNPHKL", "assay": "inhibition of Homo sapiens G6PD, dose series – biochemical, fluorescence, selectivity assay for P. falciparum G6PD inhibitor project, dose response (AID 504792)", "assay_type": "functional"}, "[12]": {"assay": "Fluorescence-based cell-based high throughput dose response assay for inhibitors of the interaction of nucleotide-binding oligomerization domain containing 2 (NOD2) and the receptor-interacting serine-threonine kinase 2 (RIPK2).", "assay_type": "functional", "settings": "Homo sapiens"}, "Beta Lactamase": {"target": "Beta Lactamase (Pseudomonas aeruginosa, UniProt Q932Y6)", "sequence (Q932Y6 whole entry)": "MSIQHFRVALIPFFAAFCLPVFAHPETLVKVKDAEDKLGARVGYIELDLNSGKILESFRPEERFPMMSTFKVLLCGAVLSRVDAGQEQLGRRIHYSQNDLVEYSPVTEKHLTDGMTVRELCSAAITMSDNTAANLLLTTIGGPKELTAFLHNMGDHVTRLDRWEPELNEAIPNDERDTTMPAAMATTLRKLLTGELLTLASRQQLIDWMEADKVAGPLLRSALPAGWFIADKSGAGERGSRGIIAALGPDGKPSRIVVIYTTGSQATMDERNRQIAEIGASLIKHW", "assay": "BLA reporter interference, concentration series – BLA reporter cells, FRET fluorescence, artefact control for NOD2-RIPK2 interaction inhibitor project, dose response (AID 651552)", "assay_type": "functional, cell-based"}, "[13]": {"target": "T3, Rac GTPase-activating protein 1 (Homo sapiens, UniProt Q9H0H5)", "T3 sequence (Q9H0H5 whole entry)": "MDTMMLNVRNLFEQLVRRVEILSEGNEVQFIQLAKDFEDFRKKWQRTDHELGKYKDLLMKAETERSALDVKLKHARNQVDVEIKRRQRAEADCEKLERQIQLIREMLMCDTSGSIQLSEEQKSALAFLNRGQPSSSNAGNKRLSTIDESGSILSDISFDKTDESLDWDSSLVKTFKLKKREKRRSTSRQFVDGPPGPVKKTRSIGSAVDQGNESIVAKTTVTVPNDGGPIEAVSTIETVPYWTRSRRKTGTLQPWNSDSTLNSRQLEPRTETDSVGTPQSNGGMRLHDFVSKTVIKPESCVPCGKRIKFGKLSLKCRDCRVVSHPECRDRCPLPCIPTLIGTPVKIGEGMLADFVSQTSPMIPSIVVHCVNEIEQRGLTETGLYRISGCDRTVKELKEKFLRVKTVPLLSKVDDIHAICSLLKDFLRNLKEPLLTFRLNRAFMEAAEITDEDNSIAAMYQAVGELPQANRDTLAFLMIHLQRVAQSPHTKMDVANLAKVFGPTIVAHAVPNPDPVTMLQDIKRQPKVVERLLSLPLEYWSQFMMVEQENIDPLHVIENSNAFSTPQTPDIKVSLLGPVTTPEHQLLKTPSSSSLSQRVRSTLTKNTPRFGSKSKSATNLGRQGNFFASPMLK", "assay": "blockers of MgcRacGAP-driven Rac1 GTP hydrolysis – biochemical, ADP Hunter fluorescence, primary and confirmatory, confirmation (AID 624330)", "assay_type": "functional"}, "[14]": {"target": "SWI/SNF-related matrix-associated actin-dependent regulator of chromatin subfamily A member 2 (Homo sapiens, UniProt P51531)", "sequence (P51531 whole entry)": "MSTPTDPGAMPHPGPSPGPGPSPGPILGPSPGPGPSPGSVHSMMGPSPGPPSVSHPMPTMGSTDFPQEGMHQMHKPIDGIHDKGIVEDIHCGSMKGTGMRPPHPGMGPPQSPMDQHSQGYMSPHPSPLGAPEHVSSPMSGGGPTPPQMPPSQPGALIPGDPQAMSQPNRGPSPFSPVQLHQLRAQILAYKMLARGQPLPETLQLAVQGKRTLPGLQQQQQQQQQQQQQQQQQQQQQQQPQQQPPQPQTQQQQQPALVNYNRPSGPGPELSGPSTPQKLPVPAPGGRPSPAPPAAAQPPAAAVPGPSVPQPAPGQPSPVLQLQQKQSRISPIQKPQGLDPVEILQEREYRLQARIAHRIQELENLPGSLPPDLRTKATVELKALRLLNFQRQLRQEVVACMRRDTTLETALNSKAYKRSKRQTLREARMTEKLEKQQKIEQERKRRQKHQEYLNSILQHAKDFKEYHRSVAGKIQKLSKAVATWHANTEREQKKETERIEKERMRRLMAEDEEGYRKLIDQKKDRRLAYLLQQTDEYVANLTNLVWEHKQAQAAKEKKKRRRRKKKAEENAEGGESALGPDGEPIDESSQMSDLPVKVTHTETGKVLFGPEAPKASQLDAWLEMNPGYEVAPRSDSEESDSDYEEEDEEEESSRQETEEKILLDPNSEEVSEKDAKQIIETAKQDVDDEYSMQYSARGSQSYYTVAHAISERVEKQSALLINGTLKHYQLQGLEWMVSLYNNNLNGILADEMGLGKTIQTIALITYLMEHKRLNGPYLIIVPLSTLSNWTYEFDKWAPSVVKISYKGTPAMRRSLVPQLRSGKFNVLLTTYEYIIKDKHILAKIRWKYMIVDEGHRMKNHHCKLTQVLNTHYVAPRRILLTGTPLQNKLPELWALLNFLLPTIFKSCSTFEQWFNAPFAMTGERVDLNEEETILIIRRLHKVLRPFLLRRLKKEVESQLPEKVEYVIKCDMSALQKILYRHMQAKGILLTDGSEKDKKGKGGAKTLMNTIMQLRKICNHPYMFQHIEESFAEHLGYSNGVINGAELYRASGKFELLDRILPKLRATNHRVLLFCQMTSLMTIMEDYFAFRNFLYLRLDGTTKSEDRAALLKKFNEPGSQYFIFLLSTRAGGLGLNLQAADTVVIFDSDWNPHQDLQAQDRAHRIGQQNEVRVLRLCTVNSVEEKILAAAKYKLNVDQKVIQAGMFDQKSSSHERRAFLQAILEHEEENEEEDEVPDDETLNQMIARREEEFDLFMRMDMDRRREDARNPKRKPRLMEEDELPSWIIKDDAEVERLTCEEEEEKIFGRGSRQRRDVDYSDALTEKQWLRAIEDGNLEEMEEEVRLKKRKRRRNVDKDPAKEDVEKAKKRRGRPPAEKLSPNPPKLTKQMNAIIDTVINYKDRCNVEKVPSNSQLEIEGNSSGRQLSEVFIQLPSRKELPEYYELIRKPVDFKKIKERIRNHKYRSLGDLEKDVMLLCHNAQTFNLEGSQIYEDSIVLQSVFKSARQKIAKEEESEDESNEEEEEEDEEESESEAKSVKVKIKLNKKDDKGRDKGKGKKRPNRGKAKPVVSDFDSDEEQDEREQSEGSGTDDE", "assay": "Luminescence-based cell-based high throughput dose response assay to identify activators of the function of SWI/SNF related, matrix associated, actin dependent regulator of chromatin, subfamily a, member 2 (SMARCA2, BRM).", "assay_type": "functional"}, "[15]": {"assay": "Counterscreen for activators of the function of SWI/SNF related, matrix associated, actin dependent regulator of chromatin, subfamily a, member 2 (SMARCA2, BRM): Luminescence-based cell-based high throughput dose response assay to identify non-selective compounds using the VP16 reporter assay.", "assay_type": "functional"}}, "note": "Calls of active or inactive are those of the source.", "data": [{"smiles": "CCC(C)Nc1nc(-c2ccccn2)nc2ccccc12", "note": "(stereo not drawn)", "values": [{"measurement": "EC50", "setting": "[1]", "value": "1.33 µM (active)"}, {"measurement": "EC50", "setting": "[2]", "value": "> 30 µM (not active)"}, {"measurement": "IC50", "setting": "Nonstructural protein 1", "value": "25.5 µM (active)"}, {"measurement": "AC50", "setting": "HEK293", "value": "4.94 µM (active)"}, {"measurement": "AC50", "setting": "INS1", "value": "2.89 µM (active)"}, {"measurement": "IC50", "setting": "[3]", "value": "4.14 µM (active)"}, {"measurement": "AC50", "setting": "[4]", "value": "117 µM (active)"}]}, {"smiles": "c1ccc(CN2CCN(c3ncccn3)CC2)cc1", "values": [{"measurement": "EC50", "setting": "Mu-type opioid receptor", "value": "92.5 µM (inactive)"}, {"measurement": "EC50", "setting": "[5]", "value": "0.235 µM (active)"}]}, {"smiles": "S=C(Nc1ccc2nsnc2c1)N1CCCC1", "values": [{"measurement": "IC50", "setting": "[6]", "value": "> 128 µM (inactive)"}]}, {"smiles": "CCCOc1ccc(OCCOCCN2CCc3ccccc3C2)cc1", "values": [{"measurement": "EC50", "setting": "[1]", "value": "0.205 µM (active)"}, {"measurement": "EC50", "setting": "[2]", "value": "> 30 µM (not active)"}, {"measurement": "IC50", "setting": "cells [7]", "value": "> 29.9 µM (inactive)"}, {"measurement": "EC50", "setting": "[8]", "value": "2.08 µM (active)"}, {"measurement": "IC50", "setting": "[9]", "value": "> 3.32 µM (active)"}, {"measurement": "EC50", "setting": "cells [10]", "value": "> 29.9 µM (inactive)"}]}, {"smiles": "O=C(Cn1sc2ccccc2c1=O)Nc1ccc(F)cc1", "values": [{"measurement": "IC50", "setting": "Hexokinase", "value": "6.23 µM (active)"}, {"measurement": "IC50", "setting": "[11]", "value": "14.9 µM (active)"}, {"measurement": "IC50", "setting": "[12]", "value": "9.51 µM (active)"}, {"measurement": "IC50", "setting": "Beta Lactamase", "value": "19.3 µM (inactive)"}, {"measurement": "IC50", "setting": "[13]", "value": "56.2 µM (active)"}, {"measurement": "EC50", "setting": "[14]", "value": "> 91.1 µM (inactive)"}, {"measurement": "EC50", "setting": "[15]", "value": "> 91.1 µM (inactive)"}]}]}
